Measurements: patent publication US8920822B2, “Skin beautifier” (Megmilk Snow Brand Co., Ltd., priority 2004, dated 2014)

Columns and labels:
[1] = tested on: CD-1 (ICR)-nu/nu mice; experiment: Moisture content of the tail skin of nude mice after 4 weeks of oral feeding (Corneometer); type: in vivo, mouse; conditions: for increase of the moisture content of the skin: end vs start of administration; for Increase Rate of Moisture: value at end of feeding with start = 100
Procedure: (§1) Effects of the skin beautifier according to the present invention were investigated by an animal test using nude mice.
(§2) A sphingomyelin raw material (Phospholac 500; manufactured by NZMP) containing 10% of sphingomyelins was dissolved in deionized water as shown in Table 1. The solution was heated to 50° C. and then mixed under stirring with an ultradisperser (ULTRA-TURRAX T-25; manufactured by IKA Japan) at 9500 rpm for 20 minutes to prepare Test Feeds 1 to 3.
(§3) Five-week old CD-1 (ICR)-nu/nu mice were divided into the following 4 test groups (10 mice in each group), namely, (Group A) a group receiving 10 g of physiological saline per kg of mouse body weight, (Group B) a group receiving 10 g of the Test Feed 1 per kg of mouse body weight, (Group C) a group receiving 10 g of the Test Feed 2 per kg of mouse body weight, and (Group D) a group receiving 10 g of the Test Feed 3 per kg of mouse body weight. Mice in all the groups were fed by orally administering the feed once daily by gavage feeding for 4 weeks. Moisture contents and transepidermal water losses in the tail skin of each mouse were measured at the start and the end of the feeding. Values at the end of the feeding (rates of increase) were calculated by assuming each of the values at the start of the feeding to be 100. The moisture contents of the skin and the transepidermal water losses were measured using Corneometer and Tewameter, respectively, which were manufactured by Courage+Khazaka.

[2] = tested on: CD-1 (ICR)-nu/nu mice; experiment: Transepidermal water loss in the tail skin of nude mice after 4 weeks of oral feeding (Tewameter); type: in vivo, mouse; conditions: for Increase Rate of Transepidermal Water Loss: value at end of feeding with start = 100; for increase of the transepidermal water loss: after 4-week administration
Procedure: as §1, §2, §3

[3] = Group B, Test Feed 1, sphingomyelin 2 mg/kg orally once daily for 4 weeks
[4] = Group C, Test Feed 2, sphingomyelin 5 mg/kg orally once daily for 4 weeks
[5] = Group D, Test Feed 3, sphingomyelin 10 mg/kg orally once daily for 4 weeks
[6] = oral administration, nude mice, covers moisture content and TEWL

sphingomyelin
increase of the moisture content of the skin ([1]; Group B (printed Group 13), 2 mg/kg orally): about 1.5 times
Increase Rate of Moisture [1, 3]: 155%
increase of the moisture content of the skin ([1]; Group C, 5 mg/kg orally): about 2.5 times
Increase Rate of Moisture [1, 4]: 245%
increase of the moisture content of the skin ([1]; Group D, 10 mg/kg orally): about 2.5 times
Increase Rate of Moisture [1, 5]: 253%
dose at which the effects (skin moisture increased, transepidermal water loss decreased) were observed [1, 6]: ≥ 2 mg per kg of mouse body weight
dose at which the effects (skin moisture increased, transepidermal water loss decreased) were significant [1, 6]: ≥ 5 mg per kg of mouse body weight
Increase Rate of Transepidermal Water Loss [2, 3]: 152%
increase of the transepidermal water loss ([2]; Group C, 5 mg/kg orally): about 1.4 times
Increase Rate of Transepidermal Water Loss [2, 4]: 137%
increase of the transepidermal water loss ([2]; Group D, 10 mg/kg orally): about 1.4 times
Increase Rate of Transepidermal Water Loss [2, 5]: 140%
